Test results from PMC10135315 (Antioxidants, 2023).
Read-outs that look alike come from different tables or passages of the source.

How the values were obtained:
[1] = target: T1, xanthine oxidase from bovine milk (Bos taurus, UniProt P80457); experiment: Steady-state determination of XO activity (uric acid formation at 295 nm), dose-dependent inhibition; assay type: biochemical; conditions: 75 µM xanthine; for IC50: steady-state determination, 25 °C, pH 7.8
T1 construct: xanthine oxidase from bovine milk (0.5 U/mg); purchased Sigma-Aldrich (St. Louis, MO, USA); host or cells: bovine milk (natural source)
T1 sequence (P80457 whole entry): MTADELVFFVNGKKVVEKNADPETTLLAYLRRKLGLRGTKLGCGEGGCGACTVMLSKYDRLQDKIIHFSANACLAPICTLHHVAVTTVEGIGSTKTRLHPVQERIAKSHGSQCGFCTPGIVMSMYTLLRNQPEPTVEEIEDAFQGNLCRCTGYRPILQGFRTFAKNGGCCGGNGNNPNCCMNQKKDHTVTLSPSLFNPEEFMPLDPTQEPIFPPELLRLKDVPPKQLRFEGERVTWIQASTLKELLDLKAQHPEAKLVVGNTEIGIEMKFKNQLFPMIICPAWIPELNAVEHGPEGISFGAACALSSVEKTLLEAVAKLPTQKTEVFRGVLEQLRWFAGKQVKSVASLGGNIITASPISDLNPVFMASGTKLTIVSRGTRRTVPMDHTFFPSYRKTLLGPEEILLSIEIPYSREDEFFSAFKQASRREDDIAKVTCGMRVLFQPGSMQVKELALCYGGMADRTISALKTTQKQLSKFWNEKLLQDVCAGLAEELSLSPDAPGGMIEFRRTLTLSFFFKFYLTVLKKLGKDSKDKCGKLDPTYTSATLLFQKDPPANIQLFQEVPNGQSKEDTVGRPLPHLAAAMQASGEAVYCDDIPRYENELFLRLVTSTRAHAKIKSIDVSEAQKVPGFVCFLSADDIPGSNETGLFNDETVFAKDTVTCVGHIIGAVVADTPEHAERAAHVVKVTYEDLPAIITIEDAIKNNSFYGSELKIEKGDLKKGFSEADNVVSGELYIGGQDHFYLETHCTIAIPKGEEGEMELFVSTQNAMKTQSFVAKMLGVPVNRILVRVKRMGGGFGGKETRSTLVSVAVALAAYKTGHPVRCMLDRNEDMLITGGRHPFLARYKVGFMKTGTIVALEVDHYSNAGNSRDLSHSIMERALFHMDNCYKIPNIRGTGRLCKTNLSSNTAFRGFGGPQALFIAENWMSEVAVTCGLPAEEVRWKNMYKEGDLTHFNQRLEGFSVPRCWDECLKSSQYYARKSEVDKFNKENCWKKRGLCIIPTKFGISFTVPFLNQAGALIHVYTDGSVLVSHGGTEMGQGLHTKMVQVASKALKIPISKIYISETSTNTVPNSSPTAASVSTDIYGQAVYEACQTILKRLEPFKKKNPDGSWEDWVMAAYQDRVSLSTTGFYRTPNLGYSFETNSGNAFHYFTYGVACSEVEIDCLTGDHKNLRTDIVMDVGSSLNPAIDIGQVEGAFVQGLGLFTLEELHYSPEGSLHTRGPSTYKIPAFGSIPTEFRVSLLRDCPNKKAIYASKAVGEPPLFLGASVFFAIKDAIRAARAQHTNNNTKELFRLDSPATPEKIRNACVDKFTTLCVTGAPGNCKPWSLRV
Description: The activity of XO was measured spectrophotometrically at 25 °C by monitoring the increase of absorbance at 295 nm due to the formation of uric acid, using a Cary 100 UV-Vis Spectrophotometer (Agilent Technologies, Milan, Italy), essentially, as previously reported. […] The DMSO concentration carried over by the inhibitor was 0.5% (v/v); an identical concentration of DMSO was used in the absence of inhibitor. The reaction started with the addition of XO and was followed kinetically up to 30 s by continuously monitoring the absorbance. The initial rate of uric acid formation was derived from the linear part of the kinetics and expressed as ΔE/min. The effect of each inhibitor was evaluated through the ratio of residual XO activity measured in the presence of each inhibitor over that measured in the absence of inhibitor.

[2] = target: T1, xanthine oxidase from bovine milk; experiment: Kinetic measurements of XO activity (Michaelis-Menten / Lineweaver-Burk); assay type: biochemical; conditions: for Ki / Vmax in presence of inhibitor: 4-30 µM xanthine; for Ki: from increase of KM for xanthine, competitive model; for Mechanism of XO inhibition: kinetic analysis; for Vmax in presence of inhibitor: pooled over the tested inhibitor concentrations
Description: The inhibition power of the various compounds and their mechanism of inhibition were assessed through kinetic measurements of the XO activity. To this aim, each assay was carried out in a 500 µL final volume reaction mixture, containing 4–30 µM xanthine dissolved in buffer A in the absence or presence of a fixed concentration of the various inhibitors. The reaction started with the addition of XO and was followed as indicated in steady-state assays. The kinetic parameters of the reaction, KM for the substrate and Vmax of the reaction, were derived either from the direct non-linear interpolation in the Michaelis–Menten hyperbolic equation of the initial rate of uric acid formation vs. the xanthine concentration or from a double reciprocal transformation of the kinetic data in Lineweaver–Burk plots. […] Therefore, the inhibition constant (Ki) was obtained from the increase of KM for xanthine in the presence of the inhibitor, according to the KM′ = KM•{1 + ([I]/Ki)} equation, where KM′ represents the KM for xanthine measured in the presence of the concentration [I] of the inhibitor.

[3] = target: T1, xanthine oxidase from bovine milk; experiment: Reversibility of XO inhibition by dilution method; assay type: biochemical
Description: The reversibility of the inhibition mechanism was evaluated through a dilution method of a solution containing XO and inhibitor. To this aim, a sample of XO was incubated at 25 °C in the absence or presence of a concentrated solution of inhibitor. Aliquots of these mixtures were withdrawn at different times and 4-fold diluted through the addition of a solution containing the substrate xanthine. The samples were then immediately assayed for XO activity as previously indicated for the steady-state determinations.

XO = conditions: cited from earlier work
[4] = known XO inhibitors co-crystallised into XO, no reference given

Inhibition profile of XO activity [1] | IC50 [1] | Ki [2] | Mechanism of XO inhibition [2] | Vmax in presence of inhibitor [2] | Reversibility of inhibition ([3]; preincubation with XO at 25 °C up to 30 min, then 4-fold dilution (ALS-28: 60 µM to 15 µM)) | SMILES | Time-dependent reduction of XO activity ([3]; 60 µM inhibitor, 25 °C, up to 30 min) | Inhibition mechanism (XO) | Inhibition mechanism (XO; [4])
dose-dependent inhibition | 82 µM | 41 ± 14 µM | competitive inhibitors | 0.087 ± 0.004 (n = 2) ΔE/min | – | O=C(O)c1cc2ccc(Br)cc2[nH]1 [ALS-1] | – | – | –
dose-dependent inhibition | 30 µM | 4.5 ± 1.5 µM | competitive inhibitors | 0.093 ± 0.007 (n = 4) ΔE/min | – | O=C(O)c1cc(-c2cccc(F)c2)[nH]n1 [ALS-8] | – | – | –
dose-dependent inhibition | 64 µM | 23 ± 9 µM | competitive inhibitors | 0.086 ± 0.003 (n = 4) ΔE/min | – | Brc1cncc(-c2nn[nH]n2)c1 [ALS-15] | – | – | –
dose-dependent inhibition | 18 µM | 2.7 ± 1.5 µM | competitive inhibitors | 0.113 ± 0.007 (n = 4) ΔE/min | reversible inhibitor | O=C(O)c1cc(-c2ccc(Cl)cc2)ncn1 [ALS-28] | no time-dependent reduction of XO activity | – | –
– | – | – | – | – | – | N#Cc1cc(-c2n[nH]c(-c3ccncc3)n2)ccn1 [FYX-051, topiroxostat] | – | hybrid-type inhibition mechanism | –
– | – | – | – | – | – | Cc1nc(-c2ccc(OCC(C)C)c(C#N)c2)sc1C(=O)O [TEI-6720, febuxostat] | – | mixed-type inhibition | –
– | – | – | – | – | – | O=c1c(O)c(-c2ccc(O)c(O)c2)oc2cc(O)cc(O)c12 [quercetin] | – | – | competitive
– | – | – | – | – | – | O=C(O)c1ccccc1O [salicylic acid] | – | – | competitive inhibitor
